Inconclusive results and toxic doses are left out. Rule as the data show it: active = T/C of 150% or more; inactive = T/C below 125%.
Tested on: L1210 leukemia ip in BDF1 mice, survival T/C
Experiment: NCI In Vivo Anticancer Drug Screen. Data for tumor model L1210 Leukemia (intraperitoneal) in B6D2F1 (BDF1) mice
Details: endpoint: mean survival time, higher = longer survival
In short: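 Each compound was tested against a transplantable tumor grown in mice. The endpoint was survival, with treated animals benchmarked against vehicle controls as a simple ratio.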

[1] = dose: 100.0 mg/kg/injection, schedule: Q04DX003 (ip), vehicle: Klucel (hydroxypropylcellulose) (HPC)
[2] = dose: 200.0 mg/kg/injection, schedule: Q04DX003 (ip), vehicle: Klucel (hydroxypropylcellulose) (HPC)
[3] = dose: 400.0 mg/kg/injection, schedule: Q04DX003 (ip), vehicle: Klucel (hydroxypropylcellulose) (HPC)
[4] = dose: 100.0 mg/kg/injection, schedule: Q04DX003 (ip), vehicle: saline
[5] = dose: 200.0 mg/kg/injection, schedule: Q04DX003 (ip), vehicle: saline

Measured: T/C

NC(N)=N/N=C/c1cccc(OCC(=O)O)c1
inactive: dose: 15.0 mg/kg/injection, schedule: Q01DX Z (ip), vehicle: carboxymethylcellulose (CMC) 87 % of control | dose: 30.0 mg/kg/injection, schedule: Q01DX Z (ip), vehicle: carboxymethylcellulose (CMC) 92 % of control | dose: 60.0 mg/kg/injection, schedule: Q01DX Z (ip), vehicle: carboxymethylcellulose (CMC) 92 % of control | dose: 60.0 mg/kg/injection, schedule: Q01DX Z (oral), vehicle: carboxymethylcellulose (CMC) 100 % of control | dose: 120.0 mg/kg/injection, schedule: Q01DX Z (ip), vehicle: carboxymethylcellulose (CMC) 94 % of control | dose: 120.0 mg/kg/injection, schedule: Q01DX Z (oral), vehicle: carboxymethylcellulose (CMC) 100 % of control | dose: 240.0 mg/kg/injection, schedule: Q01DX Z (oral), vehicle: carboxymethylcellulose (CMC) 94 % of control | dose: 480.0 mg/kg/injection, schedule: Q01DX Z (oral), vehicle: carboxymethylcellulose (CMC) 100 % of control

CC1=CC(C(=O)O)P(C)(=O)C1 (stereo not drawn)
inactive: dose: 100.0 mg/kg/injection, schedule: Q04DX002 (ip), vehicle: saline with Tween-80 92 % of control | dose: 400.0 mg/kg/injection, schedule: Q04DX002 (ip), vehicle: saline with Tween-80 88 % of control

CC1(C)CN=C(c2ccc([N+](=O)[O-])cc2)O1
inactive: dose: 75.0 mg/kg/injection, schedule: Q04DX003 (ip), vehicle: Klucel (hydroxypropylcellulose) (HPC) 108 % of control | dose: 150.0 mg/kg/injection, schedule: Q04DX003 (ip), vehicle: Klucel (hydroxypropylcellulose) (HPC) 94 % of control | dose: 300.0 mg/kg/injection, schedule: Q04DX003 (ip), vehicle: Klucel (hydroxypropylcellulose) (HPC) 89 % of control

O=S1(=O)CC(CBr)=C(CBr)C1
inactive: dose: 15.0 mg/kg/injection, schedule: Q01DX001 (ip), vehicle: carboxymethylcellulose (CMC) 94 % of control | dose: 30.0 mg/kg/injection, schedule: Q01DX001 (ip), vehicle: carboxymethylcellulose (CMC) 93 % of control | dose: 60.0 mg/kg/injection, schedule: Q01DX001 (ip), vehicle: carboxymethylcellulose (CMC) 100 % of control

CCOC(=O)/C(=C\c1ccccn1)C(=O)c1cccnc1
inactive: [1] 102 % of control | [2] 105 % of control | [3] 118 % of control

CC(C)(C)NC(N)=O
inactive: dose: 100.0 mg/kg/injection, schedule: Q01DX009 (ip), vehicle: saline 100 % of control | dose: 200.0 mg/kg/injection, schedule: Q01DX009 (ip), vehicle: saline 97 % of control | dose: 400.0 mg/kg/injection, schedule: Q01DX009 (ip), vehicle: saline 100 % of control

CCCCN(CCCC)/C(=C/C(=O)OC)C(=O)OC
inactive: [1] 94 % of control | [2] 100 % of control | [3] 94 % of control

NC(CSS(=O)(=O)O)=NCc1cccs1
inactive: dose: 12.5 mg/kg/injection, schedule: Q01DX009 (ip), vehicle: saline with Tween-80 103 % of control | dose: 25.0 mg/kg/injection, schedule: Q01DX009 (ip), vehicle: saline with Tween-80 96 % of control

CCCCCCC(C)C(COC(=O)c1ccc([N+](=O)[O-])cc1)NCC (stereo not drawn)
inactive: dose: 75.0 mg/kg/injection, schedule: Q01DX001 (ip), vehicle: saline 93 % of control | dose: 150.0 mg/kg/injection, schedule: Q01DX001 (ip), vehicle: saline 96 % of control

CC(O)C(Cl)(Cl)Cl (stereo not drawn)
inactive: dose: 75.0 mg/kg/injection, schedule: Q01DX001 (ip), vehicle: carboxymethylcellulose (CMC) 100 % of control | dose: 150.0 mg/kg/injection, schedule: Q01DX001 (ip), vehicle: carboxymethylcellulose (CMC) 98 % of control | dose: 300.0 mg/kg/injection, schedule: Q01DX001 (ip), vehicle: carboxymethylcellulose (CMC) 106 % of control

O=C1/C(=C/c2ccccc2)SC(=S)N1C1OC(CO)C(O)C(O)C1O (stereo not drawn)
inactive: dose: 12.5 mg/kg/injection, schedule: Q01DX005 (ip), vehicle: other 98 % of control | dose: 25.0 mg/kg/injection, schedule: Q01DX005 (ip), vehicle: other 98 % of control | dose: 50.0 mg/kg/injection, schedule: Q01DX005 (ip), vehicle: other 106 % of control | dose: 100.0 mg/kg/injection, schedule: Q01DX005 (ip), vehicle: other 101 % of control | dose: 200.0 mg/kg/injection, schedule: Q01DX005 (ip), vehicle: other 98 % of control

CSc1nc(N)cc(C(N)=O)n1
inactive: dose: 100.0 mg/kg/injection, schedule: Q01DX Z (ip), vehicle: methylcellulose (MC) 101 % of control

C/C(CCO)=N\NC(N)=S
inactive: dose: 50.0 mg/kg/injection, schedule: Q01DX001 (ip), vehicle: saline 98 % of control | dose: 100.0 mg/kg/injection, schedule: Q01DX001 (ip), vehicle: saline 98 % of control | [4] 100 % of control | dose: 200.0 mg/kg/injection, schedule: Q01DX001 (ip), vehicle: saline 92 % of control | [5] 90 % of control | dose: 400.0 mg/kg/injection, schedule: Q01DX001 (ip), vehicle: saline 101 % of control | dose: 400.0 mg/kg/injection, schedule: Q04DX003 (ip), vehicle: saline 88 % of control

CC(C)C(C(=O)O)N(C)N=O (stereo not drawn)
inactive: dose: 50.0 mg/kg/injection, schedule: Q04DX003 (ip), vehicle: saline 94 % of control | dose: 100.0 mg/kg/injection, schedule: Q01DX001 (ip), vehicle: acetone 101 % of control | [4] 97 % of control | dose: 200.0 mg/kg/injection, schedule: Q01DX001 (ip), vehicle: acetone 103 % of control | [5] 94 % of control

O=C(c1ccccc1)c1cccnc1
inactive: dose: 100.0 mg/kg/injection, schedule: Q04DX003 (ip), vehicle: saline with Tween-80 101 % of control | dose: 200.0 mg/kg/injection, schedule: Q04DX003 (ip), vehicle: saline with Tween-80 101 % of control | dose: 400.0 mg/kg/injection, schedule: Q04DX003 (ip), vehicle: saline with Tween-80 104 % of control
